The numbers were not newly measured in publication PMC6952392, “A combined computational and experimental strategy identifies mutations conferring resistance to drugs targeting the BCR-ABL fusion protein” (Communications Biology, 2020), which cites them from elsewhere.

Like-named read-outs stand apart in the source and are kept apart here.

The conditions of data set [1]: safety window.

On to `Cc1cn(-c2cc(NC(=O)c3ccc(C)c(Nc4nccc(-c5cccnc5)n4)c3)cc(C(F)(F)F)c2)cn1` [nilotinib], for which the “effective safe plasma concentration” value in data set [1] was less than 1500 ng/mL. As to `COc1cc(Nc2c(C#N)cnc3cc(OCCCN4CCN(C)CC4)c(OC)cc23)c(Cl)cc1Cl` [bosutinib], the “in vitro inhibitory activity” value with BCR-ABL is given as “sub-nanomolar range”. Consider `Cc1ccc(C(=O)Nc2ccc(CN3CCN(C)CC3)c(C(F)(F)F)c2)cc1C#Cc1cnc2cccnn12` [ponatinib], for which the “in vitro inhibitory activity” value with BCR-ABL (general statement, no reference given) is listed as “sub-nanomolar range”.
